Several values for one entry are separate records, joined by “and”; a condition that tells them apart may be missing. Identical values can stand only once. Entries after “also recorded” stand apart in the source; their conditions may differ.
Experiments:
HREC [1] = assay: BrdU incorporation (DNA synthesis) in HRECs; format: cell-based, human; conditions: for attenuation of NECA-stimulated BrdU incorporation by HRECs: XAC 10 μM, CPX 20 nM, SCH58261 60 nM
Experimental: (§1) The subtype of adenosine receptor (A2B) that mediates the proliferative effect of adenosine on HREC was determined by the following studies. […] In contrast, neither the A2A adenosine receptor agonist CGS21680 (2-p-(2-carboxyethyl) phenethylamino-5′-N-ethylcarboxamidoadenosine) at concentrations ranging from 10 nM to 10 μM, nor the A1 adenosine receptor agonist CPA (N^6-cyclopentyladenosine) at concentrations ranging from 10 nM to 10 μM increased BrdU incorporation by HRECs. […] In contrast, neither the selective A1 adenosine receptor antagonist CPX (8-cyclopentyl-1,3-dipropylxanthine) at 20 nM, nor the selective A2A adenosine receptor antagonist SCH58261 (5-amino-7-(2-phenylethyl)-2-(2-furyl)-pyrazolo(4,3-E)-1,2,4-trizolo(1,5-c) pyrimidine) at 60 nM attenuated the stimulatory effect of NECA on BrdU incorporation by HRECs. These findings indicate that the proliferative effects of NECA are mediated by the A2B adenosine receptor in HREC in culture (Table 3).

HREC [2] = assay: cAMP content of intact HRECs; format: cell-based, human; conditions: for inhibition of NECA-induced increase in cAMP content in HRECs: NECA 10 μM
Source text: The cAMP content of intact HRECs following treatment with adenosine receptor agonists and antagonists was next examined. […] The effect of selective A1 and A2A adenosine receptor antagonists on NECA-induced accumulation of cAMP was also examined.

HREC [3] = assay: HREC proliferation, cell count; format: cell-based, human; conditions: agonist alone, 48 hr
Experimental: as §1
The data for cell counts were consistent with those for BrdU incorporation. […] These compounds, like XAC, blocked the proliferative effects of NECA as measured by cell counts, supporting that the proliferative effects of NECA on HREC are mediated by the adenosine A2B receptor (Table 3).

HREC [4] = assay: ERK/MAPK activation in HREC, Western blot; format: cell-based, human; conditions: for effect on NECA-stimulated ERK activation: HREC pretreated with antagonist or inhibitor, then NECA
Experimental: HREC were serum-starved for 24 hr and pre-treated for 20 min with 1 U/mL adenosine deaminase prior to adding NECA. Activated ERK/MAPK was visualized on Western blots by enhanced chemiluminescence using EC10 monoclonal antibody;
HRECs were serum-starved for 24 hr and pre-treated with adenosine deaminase (ADA, 1 U/mL) for 20 min, incubated with the antagonists in the presence of ADA for 10 min. NECA (1 nM-10 μM, 10 min) was used to activate ERK.
In order to determine the intracellular signaling pathways activated by NECA that regulate ERK activity, we pretreated cells for 30 min with the ERK/MPAK kinase (MEK) inhibitor PD98059 or the PKA inhibitor H-89 and stimulated with NECA for 5 min.
Cells were pre-treated with both antagonists for 10 min and stimulated with increasing concentrations of NECA.

HREC [5] = assay: HREC chemotaxis; format: cell-based, human
Source text: The role of the A2B receptor was further characterized by examining the effects of the A2B antagonists JW V108 and Enprofylline on HREC chemotaxis, capillary tube formation and signal transduction pathways following stimulation with the adenosine analogue NECA.

HREC [6] = assay: CREB phosphorylation at Ser133 in HREC, western blot; format: cell-based, human; conditions: HREC pretreated
Source text: Phosphorylation of cAMP response element binding protein (CREB) at Ser^133 was examined following NECA stimulation in order to determine whether activation of cAMP pathways by NECA occurred independently of ERK activation. Cells were pretreated with PD98059 or H-89 and assayed for active CREB by western blot.

[7] = tested on: adenosine A2b receptor mRNA; assay: Ribozyme kinetic analysis, A2B; format: biochemical
Source text: (§2) The chief characteristic of diabetic retinopathy is retinal neovascularization-the pathologic spread of blood vessels in the eye. Unique ribozymes have been developed which target the mRNAs that encode various proteins involved in this process. These include ribozymes directed at the wild-type mRNA for the adenosine A2b receptor, for IGF-I (insulin-like growth factor-1) receptor, for inducible nitric oxide synthase (iNOS), and for several integrins implicated in retinal neovascularization (e.g., alpha1, alpha3, alphaV). Also shown in Table 7 are the analyses of P347S ribozymes, that are specific for another mutant form of the rod opsin polypeptide.

[8] = tested on: IGF-I (insulin-like growth factor-1) receptor mRNA; assay: Ribozyme kinetic analysis, IGF1; format: biochemical; conditions: target GUACGUCUUCCAU
Source text: as §2

[9] = tested on: P347S rod opsin mRNA target UGGCCUCGGCCUA; assay: Ribozyme kinetic analysis, P347S human; format: biochemical; conditions: mean
Source text: as §2

[10] = tested on: P347S rod opsin mRNA target AGGCGUCAGCCUA; assay: Ribozyme kinetic analysis, P347S pig; format: biochemical
Source text: as §2

alpha1 integrin mRNA = assay: Ribozyme kinetic analysis, alpha 1 integrin; format: biochemical
Source text: as §2

alpha3 integrin mRNA = assay: Ribozyme kinetic analysis, alpha 3 integrin; format: biochemical
Source text: as §2

alphaV integrin mRNA = assay: Ribozyme kinetic analysis, alpha V integrin; format: biochemical
Source text: as §2

[11] = per experiment, target CAUGUCUCUUUG
[12] = per experiment, Rz 1 target AGAUGUCUAUAAG, Rz 2 target GAGAGUCUCAUGA
[13] = per experiment, Rz 1 target CUAUGCCUUCAUG, Rz 2 target CGCUGUCUUCCAC
[14] = per experiment, Rz 1 target GCGCGUCUUCCCG, Rz 2 target ACUGGUCUUCUAC

CCCn1c(=O)c2[nH]c(C3CCCC3)nc2n(CCC)c1=O [CPX, 8-cyclopentyl-1,3-dipropylxanthine]
attenuation of NECA-stimulated BrdU incorporation by HRECs (HREC [1]): neither
inhibition of NECA-induced increase in cAMP content in HRECs (HREC [2]): not signficantly inhibited

CCNC(=O)[C@H]1O[C@@H](n2cnc3c(N)ncnc32)[C@H](O)[C@@H]1O [NECA]
increase in HREC number (HREC [3]): concentration-dependent increase in HREC number
increase of BrdU incorporation (DNA synthesis) by HRECs (HREC [1]; agonist alone, 48 hr, CGS21680 and CPA 10 nM to 10 μM): concentration-dependent increase of DNA synthesis
EC50 (HREC [2]; intact HRECs, read-out: EC50 for increase of cAMP content of HRECs): 24 µM
ERK activation by agonist (HREC [4]; HREC, agonist alone): dose-dependent increase in ERK activation; also recorded: transient activation of ERK
HREC chemotaxis induced by agonist (HREC [5]): induced HREC chemotaxis in a concentration-dependent manner

COc1cccc(-c2cc(=O)c3ccccc3o2)c1N [PD98059]
effect on NECA-stimulated ERK activation (HREC [4]): abolished ERK activation
CREB activation (phosphorylation) following NECA stimulation (HREC [6]): did not alter CREB activation

O=S(=O)(NCCNC/C=C/c1ccc(Br)cc1)c1cccc2cnccc12 [Ribozyme H-89]
effect on NECA-stimulated ERK activation (HREC [4]): did not block
basal ERK activation (HREC [4]; HREC, CGS 1-10 μM, H-89 30 min pretreatment): increased basal ERK activation
CREB activation (phosphorylation) following NECA stimulation (HREC [6]): blocked CREB phosphorylation

Nc1nc2c(cnn2CCc2ccccc2)c2nc(-c3ccco3)nn12 [SCH58261, 5-amino-7-(2-phenylethyl)-2-(2-furyl)-pyrazolo(4,3-E)-1,2,4-trizolo(1,5-c) pyrimidine]
attenuation of NECA-stimulated BrdU incorporation by HRECs (HREC [1]): neither
inhibition of NECA-induced increase in cAMP content in HRECs (HREC [2]): not signficantly inhibited

A2B Rz 1: hammerhead ribozyme CAAAGACUGAUGAGCCGUUCGCGGCGAAACAUGU (SEQ ID NO:90), adenosine A2b receptor mRNA (RNA, backbone not given here)
Km ([7]; mean): 4.35 µM
Vmax ([7]; mean): 541.7 nM/min
kcat ([7]; mean): 36.1 min − 1
Km [7, 11]: 5.07 µM and 3.63 µM
Vmax [7, 11]: 666.7 nM/min and 416.7 nM/min
kcat [7, 11]: 44.4 min − 1 and 27.8 min − 1

IGF1 Rz 2: ribozyme GGAACUGAUGAGCCGUUCGCGGCGAAACGUAC (SEQ ID NO:101), IGF-I receptor mRNA (RNA, backbone not given here)
Km [8]: 9.76 µM
Vmax [8]: 27.6 nM/min
kcat [8]: 18.4 min − 1

P347S human: ribozyme UAGGCCCUGAUGAGCCGCUUCGGCGGCAAAGGCCA (SEQ ID NO:103), P347S mutant rod opsin mRNA (listed as RNA, chemistry not given here)
Km [9]: 41.9 µM
Vmax [9]: 0.00135 nM/min
kcat [9]: 1.10E−04 min − 1

P347S pig: ribozyme UAGGCUCUGAUGAGCCGCUUCGGCGGCAAACGCCU (SEQ ID NO:102), P347S mutant rod opsin mRNA (listed as RNA, chemistry not given here)
Km ([10]; mean): 2.05 µM
Vmax ([10]; mean): 7.3 nM/min
kcat ([10]; mean): 1.5 min − 1
Km ([10]; per experiment): 1.65 µM and 1.68 µM and 2.84 µM
kcat ([10]; per experiment): 1.8 min − 1 and 2.2 min − 1 and 1.3 min − 1 and 1.1 min − 1 and 1.2 min − 1

alpha 1 Rz 1: ribozyme CUUAUACUGAUGAGCCGUUCGCGGCGAAACAUCU (SEQ ID NO:96), alpha1 integrin mRNA (RNA, backbone not given here)
Km (alpha1 integrin mRNA; mean): 25.6 µM
Vmax (alpha1 integrin mRNA; mean): 57.0 nM/min
kcat (alpha1 integrin mRNA; mean): 3.8 min − 1
Vmax (alpha1 integrin mRNA; [12]): 61.7 nM/min and 52.4 nM/min
kcat (alpha1 integrin mRNA; [12]): 4.1 min − 1 and 3.5 min − 1

alpha 1 Rz 2: ribozyme UCAUGACUGAUGAGCCGUUCGCGGCGAAACUCUC (SEQ ID NO:97), alpha1 integrin mRNA (RNA, backbone not given here)
Km (alpha1 integrin mRNA; mean): 42.2 µM
Vmax (alpha1 integrin mRNA; mean): 42.2 nM/min
kcat (alpha1 integrin mRNA; mean): 2.9 min − 1
Km (alpha1 integrin mRNA; [12]): 30.6 µM and 53.8 µM
Vmax (alpha1 integrin mRNA; [12]): 31.0 nM/min and 53.5 nM/min
kcat (alpha1 integrin mRNA; [12]): 2.1 min − 1 and 3.6 min − 1

alpha 3 Rz 1: ribozyme CAUGAACUGAUGAGCCGUUCGCGGCGAAACAUAG (SEQ ID NO:92), alpha3 integrin mRNA (RNA, backbone not given here)
Km (alpha3 integrin mRNA; mean): 4.16 µM
Vmax (alpha3 integrin mRNA; mean): 6.2 nM/min
kcat (alpha3 integrin mRNA; mean): 0.4 min − 1
Km (alpha3 integrin mRNA; [13]): 3.62 µM and 4.69 µM
Vmax (alpha3 integrin mRNA; [13]): 5.4 nM/min and 6.9 nM/min
kcat (alpha3 integrin mRNA; [13]): 0.4 min − 1 and 0.5 min − 1

alpha 3 Rz 2: ribozyme GUGGAACUGAUGAGCCGUUCGCGGCGAAACAGCG (SEQ ID NO:93), alpha3 integrin mRNA (RNA, backbone not given here)
Km (alpha3 integrin mRNA; mean): 1.45 µM
Vmax (alpha3 integrin mRNA; mean): 2.5 nM/min
kcat (alpha3 integrin mRNA; mean): 0.2 min − 1
Km (alpha3 integrin mRNA; [13]): 1.66 µM and 1.24 µM
Vmax (alpha3 integrin mRNA; [13]): 2.8 nM/min and 2.2 nM/min
kcat (alpha3 integrin mRNA; [13]): 0.2 min − 1

alpha V Rz 1: ribozyme CGGGAACUGAUGAGCCGUUCGCGGCGAAACGCGC (SEQ ID NO:98), alphaV integrin mRNA (RNA, backbone not given here)
Km (alphaV integrin mRNA; mean): 5.2 µM
Vmax (alphaV integrin mRNA; mean): 33.4 nM/min
kcat (alphaV integrin mRNA; mean): 2.2 min − 1
Km (alphaV integrin mRNA; [14]): 4.98 µM and 5.41 µM
Vmax (alphaV integrin mRNA; [14]): 30.5 nM/min and 36.2 nM/min
kcat (alphaV integrin mRNA; [14]): 2.0 min − 1 and 2.4 min − 1

alpha V Rz 2: ribozyme GUAGAACUGAUGAGCCGUUCGCGGCGAAACCAGU (SEQ ID NO:99), alphaV integrin mRNA (RNA, backbone not given here)
Km (alphaV integrin mRNA; mean): 11.3 µM
Vmax (alphaV integrin mRNA; mean): 285.7 nM/min
kcat (alphaV integrin mRNA; mean): 19.1 min − 1
Km (alphaV integrin mRNA; [14]): 8.54 µM and 14 µM
Vmax (alphaV integrin mRNA; [14]): 238.1 nM/min and 333.3 nM/min
kcat (alphaV integrin mRNA; [14]): 15.9 min − 1 and 22.2 min − 1

From US20050096282A1, “Adeno-associated virus-delivered ribozyme compositions and methods for the treatment of retinal diseases” (priority 1997, published 2005)
